US6464988B1, “Glipizide-cyclodextrin inclusion complexes and their pharmaceutical composition” (USV Limited, priority 2001, dated 2002)

Test: In-vitro dissolution studies (% release of glipizide)
Assay type: physicochemical
Settings: containing 10 mg of Glipizide

1-cyclohexyl -3-[[p-[2-(methylpyrazinecarboxamido)ethyl]phenyl]sulfonyl]urea [Glipizide]
% release of glipizide (0.1N Hydrochloric acid, 200 ml, 5 mins): 14-18% | % release of glipizide (0.1N Hydrochloric acid, 200 ml, 15 mins): 23-24% | % release of glipizide (0.1N Hydrochloric acid, 200 ml, 30 mins): 23-26% | % release of glipizide (0.1N Hydrochloric acid, 400 ml, 5 mins): 16-20% | % release of glipizide (0.1N Hydrochloric acid, 400 ml, 15 mins): 26-27% | % release of glipizide (0.1N Hydrochloric acid, 400 ml, 30 mins): 26-30% | % release of glipizide (0.1N Hydrochloric acid, 900 ml, 5 mins): 16-18% | % release of glipizide (0.1N Hydrochloric acid, 900 ml, 15 mins): 22-26% | % release of glipizide (0.1N Hydrochloric acid, 900 ml, 30 mins): 24-27% | % release of glipizide (Phosphate Buffer pH 6.8 USP, 200 ml, 5 mins): 23-27% | % release of glipizide (Phosphate Buffer pH 6.8 USP, 200 ml, 15 mins): 65-67% | % release of glipizide (Phosphate Buffer pH 6.8 USP, 200 ml, 30 mins): 64-67% | % release of glipizide (Phosphate Buffer pH 6.8 USP, 400 ml, 5 mins): 24-29% | % release of glipizide (Phosphate Buffer pH 6.8 USP, 400 ml, 15 mins): 64-69% | % release of glipizide (Phosphate Buffer pH 6.8 USP, 400 ml, 30 mins): 65-67% | % release of glipizide (Phosphate Buffer pH 6.8 USP, 900 ml, 5 mins): 25-28% | % release of glipizide (Phosphate Buffer pH 6.8 USP, 900 ml, 15 mins): 55-62% | % release of glipizide (Phosphate Buffer pH 6.8 USP, 900 ml, 30 mins): 65-68% | % release of glipizide (Purified water pH 7.0, 200 ml, 5 mins): 30-32% | % release of glipizide (Purified water pH 7.0, 200 ml, 15 mins): 38-40% | % release of glipizide (Purified water pH 7.0, 200 ml, 30 mins): 39-41% | % release of glipizide (Purified water pH 7.0, 400 ml, 5 mins): 32-34% | % release of glipizide (Purified water pH 7.0, 400 ml, 15 mins): 40-42% | % release of glipizide (Purified water pH 7.0, 400 ml, 30 mins): 40-44% | % release of glipizide (Purified water pH 7.0, 900 ml, 5 mins): 20-25% | % release of glipizide (Purified water pH 7.0, 900 ml, 15 mins): 30-33% | % release of glipizide (Purified water pH 7.0, 900 ml, 30 mins): 38-41%
